Measurements published in ChEMBL document CHEMBL5465560, “Selectivity Literature for EUbOPEN Chemogenomic Library” (2024).
One block for each compound: values may come before it.

Legend:
[1] = biological target: T1, Serine/threonine-protein kinase Nek3 (Homo sapiens) (UniProt P51956); experiment: Selectivity interaction (KinomeScan (DiscoverX)) EUB0000695a NEK3; conditions: at 100 nM
T1 sequence (whole entry): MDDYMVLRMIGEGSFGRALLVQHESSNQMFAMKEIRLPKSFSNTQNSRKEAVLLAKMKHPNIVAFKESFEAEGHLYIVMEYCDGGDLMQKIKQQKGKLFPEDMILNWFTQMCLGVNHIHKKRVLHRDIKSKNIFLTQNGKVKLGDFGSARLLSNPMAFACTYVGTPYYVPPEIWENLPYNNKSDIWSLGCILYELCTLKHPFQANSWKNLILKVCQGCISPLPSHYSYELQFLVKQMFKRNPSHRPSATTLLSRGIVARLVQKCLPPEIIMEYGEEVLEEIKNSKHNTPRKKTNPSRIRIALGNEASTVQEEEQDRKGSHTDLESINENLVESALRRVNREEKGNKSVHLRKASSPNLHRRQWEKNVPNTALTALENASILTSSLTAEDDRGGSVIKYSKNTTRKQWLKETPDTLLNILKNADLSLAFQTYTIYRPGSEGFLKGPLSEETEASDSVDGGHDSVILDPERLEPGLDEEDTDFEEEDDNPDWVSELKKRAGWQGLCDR

[2] = biological target: Serine/threonine-protein kinase/endoribonuclease IRE1 (Homo sapiens) (UniProt O75460); experiment: Selectivity interaction (KinomeScan (DiscoverX)) EUB0000695a ERN1; conditions: at 100 nM
[3] = biological target: T2, Serine/threonine-protein kinase ICK (Homo sapiens) (UniProt Q9UPZ9); experiment: Selectivity interaction (KinomeScan (DiscoverX)) EUB0000595a ICK; conditions: at 10 µM
T2 sequence (whole entry): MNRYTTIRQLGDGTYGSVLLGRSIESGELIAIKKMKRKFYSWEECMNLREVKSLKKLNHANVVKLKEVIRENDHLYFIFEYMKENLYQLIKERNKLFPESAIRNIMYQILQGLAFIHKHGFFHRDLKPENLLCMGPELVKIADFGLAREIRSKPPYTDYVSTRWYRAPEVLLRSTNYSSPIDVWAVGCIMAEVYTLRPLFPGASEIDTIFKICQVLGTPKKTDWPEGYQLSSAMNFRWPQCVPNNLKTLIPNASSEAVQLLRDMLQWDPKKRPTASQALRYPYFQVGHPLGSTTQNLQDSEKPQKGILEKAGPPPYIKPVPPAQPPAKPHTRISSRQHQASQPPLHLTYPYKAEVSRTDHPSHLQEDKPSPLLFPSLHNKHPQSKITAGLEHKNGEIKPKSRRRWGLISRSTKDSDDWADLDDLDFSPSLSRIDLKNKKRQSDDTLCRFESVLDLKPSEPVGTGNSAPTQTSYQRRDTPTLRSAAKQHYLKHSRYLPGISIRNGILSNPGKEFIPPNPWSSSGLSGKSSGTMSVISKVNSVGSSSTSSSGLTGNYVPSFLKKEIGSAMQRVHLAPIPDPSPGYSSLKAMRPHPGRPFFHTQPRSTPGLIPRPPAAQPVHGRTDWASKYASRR

[4] = biological target: CDK9/cyclin T1 (Homo sapiens) (UniProt O60563+P50750); experiment: Selectivity interaction (Upstate Kinase Profiler service (Millipore)) EUB0000056c CDK9; type: protein-complex assay; conditions: at 1 µM
[5] = biological target: Non-receptor tyrosine-protein kinase TYK2 (Homo sapiens, UniProt P29597); experiment: Selectivity interaction (KinomeScan (DiscoverX)) EUB0000045b TYK2
[6] = biological target: T3, Serine/threonine-protein kinase TAO1 (Homo sapiens) (UniProt Q7L7X3); experiment: Selectivity interaction (KinomeScan (DiscoverX)) EUB0000618a TAOK1; conditions: at 10 µM
T3 sequence (whole entry): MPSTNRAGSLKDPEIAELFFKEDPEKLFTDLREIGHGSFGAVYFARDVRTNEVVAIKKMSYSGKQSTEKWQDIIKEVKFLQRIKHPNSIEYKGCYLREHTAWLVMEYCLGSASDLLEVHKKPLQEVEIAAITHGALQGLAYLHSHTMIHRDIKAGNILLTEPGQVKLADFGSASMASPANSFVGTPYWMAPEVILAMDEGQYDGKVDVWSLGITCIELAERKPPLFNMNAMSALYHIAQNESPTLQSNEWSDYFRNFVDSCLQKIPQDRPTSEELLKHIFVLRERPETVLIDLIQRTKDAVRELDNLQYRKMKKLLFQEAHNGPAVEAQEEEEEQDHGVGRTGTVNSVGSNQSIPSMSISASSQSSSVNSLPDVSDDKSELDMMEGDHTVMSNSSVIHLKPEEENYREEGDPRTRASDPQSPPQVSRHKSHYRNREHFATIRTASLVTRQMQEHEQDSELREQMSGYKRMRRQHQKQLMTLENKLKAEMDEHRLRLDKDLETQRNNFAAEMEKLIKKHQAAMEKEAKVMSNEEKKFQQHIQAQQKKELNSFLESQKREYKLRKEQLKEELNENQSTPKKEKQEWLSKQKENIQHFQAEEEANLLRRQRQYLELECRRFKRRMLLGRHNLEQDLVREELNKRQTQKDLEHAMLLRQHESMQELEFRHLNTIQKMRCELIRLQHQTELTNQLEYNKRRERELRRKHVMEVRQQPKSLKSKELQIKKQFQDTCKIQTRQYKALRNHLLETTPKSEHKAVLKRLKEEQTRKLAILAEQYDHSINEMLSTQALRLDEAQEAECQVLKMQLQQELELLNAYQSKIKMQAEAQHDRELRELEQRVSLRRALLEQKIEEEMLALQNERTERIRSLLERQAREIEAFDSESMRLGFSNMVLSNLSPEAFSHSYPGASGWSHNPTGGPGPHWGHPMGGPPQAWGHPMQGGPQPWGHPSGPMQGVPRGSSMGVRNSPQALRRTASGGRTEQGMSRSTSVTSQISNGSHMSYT

[7] = biological target: T4, Cyclin-dependent kinase-like 2 (Homo sapiens) (UniProt Q92772); experiment: Selectivity interaction (KinomeScan (DiscoverX)) EUB0000607a CDKL2; conditions: at 10 µM
T4 sequence (whole entry): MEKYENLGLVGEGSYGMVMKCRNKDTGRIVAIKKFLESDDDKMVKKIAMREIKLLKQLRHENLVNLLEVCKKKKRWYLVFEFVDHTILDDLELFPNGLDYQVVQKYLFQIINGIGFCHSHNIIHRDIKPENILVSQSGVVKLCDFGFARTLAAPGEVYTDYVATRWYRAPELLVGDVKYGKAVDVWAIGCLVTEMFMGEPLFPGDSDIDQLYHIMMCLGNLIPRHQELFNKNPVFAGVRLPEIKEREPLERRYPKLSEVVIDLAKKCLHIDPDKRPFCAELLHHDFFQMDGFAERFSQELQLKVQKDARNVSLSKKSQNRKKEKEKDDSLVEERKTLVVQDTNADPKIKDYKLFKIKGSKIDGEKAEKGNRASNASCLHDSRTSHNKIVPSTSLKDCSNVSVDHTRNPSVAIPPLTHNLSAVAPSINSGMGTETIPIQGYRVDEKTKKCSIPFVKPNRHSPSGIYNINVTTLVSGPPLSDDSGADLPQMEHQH

[8] = biological target: Ribosomal protein S6 kinase alpha-6 (Homo sapiens, UniProt Q9UK32); experiment: Selectivity interaction (KinomeScan (DiscoverX)) EUB0000666a RPS6KA6; conditions: at 10 µM
Chain of Ribosomal protein S6 kinase alpha-6 (Q9UK32 whole entry): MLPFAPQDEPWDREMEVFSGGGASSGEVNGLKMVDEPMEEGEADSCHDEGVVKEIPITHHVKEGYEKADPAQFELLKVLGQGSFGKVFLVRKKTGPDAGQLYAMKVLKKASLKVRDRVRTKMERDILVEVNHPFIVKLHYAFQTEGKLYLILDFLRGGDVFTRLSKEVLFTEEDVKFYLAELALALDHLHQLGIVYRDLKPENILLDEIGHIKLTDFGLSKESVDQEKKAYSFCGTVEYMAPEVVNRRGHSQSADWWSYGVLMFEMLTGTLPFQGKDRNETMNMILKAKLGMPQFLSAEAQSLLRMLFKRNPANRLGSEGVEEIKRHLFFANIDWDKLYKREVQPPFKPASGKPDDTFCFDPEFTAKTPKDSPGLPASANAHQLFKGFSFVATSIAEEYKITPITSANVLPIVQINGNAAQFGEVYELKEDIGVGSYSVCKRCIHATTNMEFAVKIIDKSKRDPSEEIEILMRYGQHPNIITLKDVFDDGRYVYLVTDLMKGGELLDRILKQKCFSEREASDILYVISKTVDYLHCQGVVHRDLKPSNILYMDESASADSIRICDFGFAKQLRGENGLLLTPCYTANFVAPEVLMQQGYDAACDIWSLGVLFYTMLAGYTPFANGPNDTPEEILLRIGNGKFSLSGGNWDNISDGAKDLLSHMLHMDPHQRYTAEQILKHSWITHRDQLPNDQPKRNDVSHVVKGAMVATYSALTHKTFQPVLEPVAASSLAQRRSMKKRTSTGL

Chain of Non-receptor tyrosine-protein kinase TYK2 (P29597 whole entry): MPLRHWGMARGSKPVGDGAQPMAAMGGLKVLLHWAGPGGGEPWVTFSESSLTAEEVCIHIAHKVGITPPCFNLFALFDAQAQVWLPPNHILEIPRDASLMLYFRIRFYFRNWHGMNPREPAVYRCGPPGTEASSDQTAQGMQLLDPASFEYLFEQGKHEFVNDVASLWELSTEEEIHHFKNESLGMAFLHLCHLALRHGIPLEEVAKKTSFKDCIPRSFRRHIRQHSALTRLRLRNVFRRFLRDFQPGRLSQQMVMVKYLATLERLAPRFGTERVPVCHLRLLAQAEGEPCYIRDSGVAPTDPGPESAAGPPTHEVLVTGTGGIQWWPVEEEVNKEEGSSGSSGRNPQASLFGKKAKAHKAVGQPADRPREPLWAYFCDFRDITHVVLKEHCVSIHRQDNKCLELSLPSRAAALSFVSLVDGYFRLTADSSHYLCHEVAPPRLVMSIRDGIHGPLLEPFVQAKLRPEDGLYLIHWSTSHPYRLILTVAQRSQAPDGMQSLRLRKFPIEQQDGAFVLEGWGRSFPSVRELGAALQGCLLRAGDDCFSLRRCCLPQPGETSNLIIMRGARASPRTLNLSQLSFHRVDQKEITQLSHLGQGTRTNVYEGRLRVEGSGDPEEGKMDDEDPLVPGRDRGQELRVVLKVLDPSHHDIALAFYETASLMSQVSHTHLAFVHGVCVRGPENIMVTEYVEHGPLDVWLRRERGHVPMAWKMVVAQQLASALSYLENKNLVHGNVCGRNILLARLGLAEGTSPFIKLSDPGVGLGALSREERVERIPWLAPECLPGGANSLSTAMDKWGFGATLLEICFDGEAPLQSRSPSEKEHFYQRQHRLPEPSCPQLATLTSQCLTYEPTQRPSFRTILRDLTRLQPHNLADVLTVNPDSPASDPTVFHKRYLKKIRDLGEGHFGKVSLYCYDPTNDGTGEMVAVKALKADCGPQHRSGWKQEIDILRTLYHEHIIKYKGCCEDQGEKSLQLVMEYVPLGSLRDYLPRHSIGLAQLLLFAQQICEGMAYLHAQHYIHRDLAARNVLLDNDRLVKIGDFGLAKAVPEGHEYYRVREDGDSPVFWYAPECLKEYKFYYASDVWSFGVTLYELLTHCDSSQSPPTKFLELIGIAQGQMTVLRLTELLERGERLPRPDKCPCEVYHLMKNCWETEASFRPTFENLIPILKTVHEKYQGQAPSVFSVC
Chain of Serine/threonine-protein kinase/endoribonuclease IRE1 (Homo sapiens) (O75460 19-977 limits assumed): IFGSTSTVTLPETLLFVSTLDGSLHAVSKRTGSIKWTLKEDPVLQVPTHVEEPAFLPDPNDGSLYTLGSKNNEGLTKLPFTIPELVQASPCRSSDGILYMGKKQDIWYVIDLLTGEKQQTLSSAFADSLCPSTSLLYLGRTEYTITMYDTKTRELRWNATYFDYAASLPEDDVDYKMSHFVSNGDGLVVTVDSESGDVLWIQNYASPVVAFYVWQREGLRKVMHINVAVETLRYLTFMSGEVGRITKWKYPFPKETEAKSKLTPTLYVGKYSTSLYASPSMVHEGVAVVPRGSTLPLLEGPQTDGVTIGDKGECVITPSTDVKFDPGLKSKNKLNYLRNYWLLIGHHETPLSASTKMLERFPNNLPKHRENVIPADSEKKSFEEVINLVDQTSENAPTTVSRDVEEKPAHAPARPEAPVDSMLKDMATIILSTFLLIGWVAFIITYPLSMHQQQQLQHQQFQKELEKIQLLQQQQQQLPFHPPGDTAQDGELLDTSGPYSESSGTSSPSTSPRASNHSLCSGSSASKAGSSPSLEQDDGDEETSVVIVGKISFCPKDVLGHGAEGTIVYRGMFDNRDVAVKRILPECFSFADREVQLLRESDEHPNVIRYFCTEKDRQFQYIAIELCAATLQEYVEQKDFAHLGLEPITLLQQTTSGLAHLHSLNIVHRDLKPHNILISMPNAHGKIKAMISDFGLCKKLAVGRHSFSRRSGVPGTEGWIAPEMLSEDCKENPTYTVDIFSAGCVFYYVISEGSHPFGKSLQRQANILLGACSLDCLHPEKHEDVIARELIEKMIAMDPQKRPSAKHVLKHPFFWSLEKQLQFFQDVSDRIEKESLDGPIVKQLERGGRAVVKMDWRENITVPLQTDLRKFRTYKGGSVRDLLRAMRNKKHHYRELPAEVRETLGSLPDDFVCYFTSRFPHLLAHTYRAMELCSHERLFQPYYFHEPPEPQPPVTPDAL

Structure (SMILES): Cc1cc(F)c(C(=O)Nc2cccc(-c3nncn3C(C)C)n2)cc1-n1cnc(C2CC2)c1
% of control [1]: 84%
% of control [2]: 88%

Structure (SMILES): COCC(=O)NC/C=C/c1ccc2ncnc(Nc3ccc(Oc4ccc(C)nc4)c(C)c3)c2c1 [CP-724714]
% of control [3]: 100%

% of inhibition [4]: 41%
Structure (SMILES): Cc1ccc(-c2ccc3c(ccc4sc5c(c43)NC[C@@H](C)NC5=O)n2)cn1

Structure (SMILES): C=CC(=O)Nc1cc(-n2c(=O)ccc3cnc4ccc(-c5ccc(NS(C)(=O)=O)cc5)cc4c32)ccc1C
% of control ([5]; at 1 µM): 100%
% of control ([5]; at 10 µM): 100%

Structure (SMILES): O[C@H]1CC[C@H](Nc2ncc3nc(Nc4c(F)cc(F)cc4F)n([C@H]4CCOC4)c3n2)CC1
% of control [6]: 81%

Structure (SMILES): CNC(=O)Nc1ccc(-c2nc(N3CC4CCC(C3)O4)c3cnn(C4CCC5(CC4)OCCO5)c3n2)cc1
% of control [7]: 100%

Structure (SMILES): O=C(NOC[C@H](O)CO)c1ccc(F)c(F)c1Nc1ccc(I)cc1F
% of control [8]: 80%
